The target of one assay is T1, TAK1-TAB1 fusion protein (Homo sapiens, UniProt O43318).
T1 construct: purchased Carna
T1 sequence (O43318 with tags, fused parts or gaps limits assumed): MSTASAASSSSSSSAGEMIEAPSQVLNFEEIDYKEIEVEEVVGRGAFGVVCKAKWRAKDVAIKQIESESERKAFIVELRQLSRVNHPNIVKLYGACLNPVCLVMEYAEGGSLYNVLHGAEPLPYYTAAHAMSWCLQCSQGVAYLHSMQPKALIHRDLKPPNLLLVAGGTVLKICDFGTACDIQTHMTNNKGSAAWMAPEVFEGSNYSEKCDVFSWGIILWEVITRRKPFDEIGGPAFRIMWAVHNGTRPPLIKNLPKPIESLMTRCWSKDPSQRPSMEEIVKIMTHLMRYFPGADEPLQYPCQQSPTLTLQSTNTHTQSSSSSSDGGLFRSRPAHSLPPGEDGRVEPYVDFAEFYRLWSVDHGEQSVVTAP
Put plainly: TAK1 biochemical assay (AlphaScreen, GST-MAP2K7 substrate). The note with it: TAK1-TAB1 fusion protein, GST-MAP2K7 substrate; read-out: mean TAK1 IC50 (Col. A). A general note: Bead proximity is the source of the signal in Alpha formats.

The subject of the next assay is pJNK in HCT-116 cells. Put plainly: Phospho-JNK (Thr183/Tyr185) Meso Scale ELISA assay, TNFα-stimulated HCT-116 cells. The class given is cell-based. The note with it: Homo sapiens, read-out: mean HCT-116 pJNK ELISA IC50 (Col. B). The procedure, abridged: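 HCT-116 cells in 1% FCS medium were pretreated with compound for 4 hrs at 37° C, then stimulated with TNFα at 10 ng/mL final for 10 minutes. Lysates were taken in ice-cold lysis buffer with phosphatase and protease inhibitors, and phospho-JNK (Thr183/Tyr185) was measured by Meso Scale ELISA.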
A general note: An ELISA detects its analyte on a solid surface through an enzyme-linked reagent.

Another assay deals with p-p38 in HCT-116 cells. Put plainly: Phospho-p38 Meso Scale ELISA assay, TNFα-stimulated HCT-116 cells. The assay is classed as cell-based. The note with it: Homo sapiens, read-out: mean HCT-116 p-p38 ELISA IC50 (Col. C). The procedure, abridged: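 HCT-116 cells in 1% FCS medium for 2 h, then compound for 4 h at 37° C, then TNFα at 10 ng/mL final for 10 min. Lysates captured overnight at 4° C and phospho-p38 quantified by Meso Scale electrochemiluminescence ELISA.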

As usually defined, the IC50 is the concentration needed to halve the response being measured. For `Nc1ncc(-c2cnn([C@H]3CC[C@H](O)CC3)c2)c2cc(-c3csc4cnccc34)oc12` [Example 233, trans-4-{4-[7-amino-2-(thieno[2,3-c]pyridin-3-yl)furo[2,3-c]pyridin-4-yl]-1H-pyrazol-1-yl}cyclohexanol], the IC50 at TAK1-TAB1 fusion protein, with pJNK in HCT-116 cells and with p-p38 in HCT-116 cells was less than 100 nM each time.
Consider `CC(=O)N1CCC(n2cc(-c3cnc(N)c4oc(-c5cccc6c5CC(=O)N6)cc34)cn2)CC1` [Example 227, 4-{4-[1-(1-acetylpiperidin-4-yl)-1H-pyrazol-4-yl]-7-aminofuro[2,3-c]pyridin-2-yl}-1,3-dihydro-2H-indol-2-one], for which the values for the IC50 at TAK1-TAB1 fusion protein, with pJNK in HCT-116 cells and with p-p38 in HCT-116 cells were 100 to 1000 nM, 1000 to 10000 nM and 1000 to 10000 nM, respectively.
As for `Nc1ncc(-c2cnn(C3CC4(C3)OCCO4)c2)c2cc(-c3csc4cnccc34)oc12` [Example 291, 4-[1-(5,8-dioxa-spiro[3.4]oct-2-yl)-1H-pyrazol-4-yl]-2-thieno[2,3-c]pyridin-3-yl-furo[2,3-c]pyridin-7-ylamine], the IC50 was less than 100 nM on TAK1-TAB1 fusion protein, 100 to 1000 nM in the assay on pJNK in HCT-116 cells and 100 to 1000 nM in the assay on p-p38 in HCT-116 cells.
Take `CC(=O)N1CCC(n2cc(-c3cnc(N)c4oc(-c5csc6cncnc56)cc34)cn2)CC1` [Example 260, 1-(4-{4-[7-amino-2-(thieno[3,2-d]pyrimidin-7-yl)furo[2,3-c]pyridin-4-yl]-1H-pyrazol-1-yl}piperidin-1-yl)ethanone]: the IC50 is 100 to 1000 nM at TAK1-TAB1 fusion protein, 1000 to 10000 nM in the assay with pJNK in HCT-116 cells and 1000 to 10000 nM in the assay on p-p38 in HCT-116 cells.
With `COc1cc(-c2cc3c(-c4cnn(C5CCN(C(C)=O)CC5)c4)cnc(N)c3o2)ccc1O` [Example 131, 1-(4-{4-[7-amino-2-(4-hydroxy-3-methoxyphenyl)furo[2,3-c]pyridin-4-yl]-1H-pyrazol-1-yl}piperidin-1-yl)ethanone], the IC50 lay in the range of 100 to 1000 nM on TAK1-TAB1 fusion protein, 100 to 1000 nM in the assay with pJNK in HCT-116 cells and 1000 to 10000 nM in the assay with p-p38 in HCT-116 cells.
As for `CC(=O)N1CCC(n2cc(-c3cnc(N)c4oc(-c5cccc6cnsc56)cc34)cn2)CC1` [Example 226, 1-(4-{4-[7-amino-2-(1,2-benzothiazol-7-yl)furo[2,3-c]pyridin-4-yl]-1H-pyrazol-1-yl}piperidin-1-yl)ethanone], the IC50 on TAK1-TAB1 fusion protein, with pJNK in HCT-116 cells and in the assay on p-p38 in HCT-116 cells was less than 100 nM each time.
For `CC(=O)N1CCC(n2cc(-c3cnc(N)c4oc(-c5cn[nH]c5)cc34)cn2)CC1` [Example 115, 1-(4-{4-[7-amino-2-(1H-pyrazol-4-yl)furo[2,3-c]pyridin-4-yl]-1H-pyrazol-1-yl}piperidin-1-yl)ethanone], the IC50 is 100 to 1000 nM at TAK1-TAB1 fusion protein, 1000 to 10000 nM in the assay on pJNK in HCT-116 cells and greater than 10000 nM with p-p38 in HCT-116 cells.
For `Nc1ncc(-c2cnn(C3CCN(C(=O)C4CCC4)CC3)c2)c2cc(-c3cccc4cnccc34)oc12` [Example 53, (4-{4-[7-amino-2-(isoquinolin-5-yl)furo[2,3-c]pyridin-4-yl]-1H-pyrazol-1-yl}piperidin-1-yl)(cyclobutyl)methanone], the IC50 on TAK1-TAB1 fusion protein is 100 to 1000 nM; with pJNK in HCT-116 cells, less than 100 nM; with p-p38 in HCT-116 cells it was 100 to 1000 nM.
For `CC(=O)N1CCC(n2cc(-c3cnc(N)c4oc(-c5ccccc5)cc34)cn2)CC1` [Example 149, 1-{4-[4-(7-amino-2-phenylfuro[2,3-c]pyridin-4-yl)-1H-pyrazol-1-yl]piperidin-1-yl}ethanone], the figures for the IC50 at TAK1-TAB1 fusion protein, in the assay on pJNK in HCT-116 cells and in the assay with p-p38 in HCT-116 cells were 1000 to 10000 nM, 100 to 1000 nM and 1000 to 10000 nM, respectively.
Take `CC(=O)N1CCC(n2cc(-c3cnc(N)c4oc(-c5cccc(C#N)c5)cc34)cn2)CC1` [Example 143, 3-{4-[1-(1-acetylpiperidin-4-yl)-1H-pyrazol-4-yl]-7-aminofuro[2,3-c]pyridin-2-yl}benzonitrile]: the IC50 at TAK1-TAB1 fusion protein, in the assay on pJNK in HCT-116 cells and with p-p38 in HCT-116 cells was 100 to 1000 nM throughout.

The record behind these values is patent US8378104B2 (OSI Pharmaceuticals, LLC, priority 2010, dated 2013).
